Reference: US6649603B2, “Cyclylamine sulfonamides as β3-adrenergic receptor agonists” (Wyeth, priority 2000, dated 2003)
pEC50: −log10 of the molar value.

How the values were obtained:
[1] = biological target: T1, human β3 adrenergic receptor (Homo sapiens, UniProt P13945); assay: cAMP accumulation (SPA) in CHO cells transfected with human β3 adrenergic receptor; format: cell-based; settings: for pEC50 / beta-3 IA (maximal response relative to isoproterenol at 10^-5 M): CHO cells, cAMP; for pEC50: 30 min incubation, read-out: beta-3 EC50; for beta-3 IA (maximal response relative to isoproterenol at 10^-5 M): fraction of maximal isoproterenol response
T1 construct: Full length β3 AR clones (402 amino acids) containing the last 6 amino acids of hβ3_AR are prepared; expressed in transfected cells; host or cells: CHO cells
T1 sequence (P13945 whole entry): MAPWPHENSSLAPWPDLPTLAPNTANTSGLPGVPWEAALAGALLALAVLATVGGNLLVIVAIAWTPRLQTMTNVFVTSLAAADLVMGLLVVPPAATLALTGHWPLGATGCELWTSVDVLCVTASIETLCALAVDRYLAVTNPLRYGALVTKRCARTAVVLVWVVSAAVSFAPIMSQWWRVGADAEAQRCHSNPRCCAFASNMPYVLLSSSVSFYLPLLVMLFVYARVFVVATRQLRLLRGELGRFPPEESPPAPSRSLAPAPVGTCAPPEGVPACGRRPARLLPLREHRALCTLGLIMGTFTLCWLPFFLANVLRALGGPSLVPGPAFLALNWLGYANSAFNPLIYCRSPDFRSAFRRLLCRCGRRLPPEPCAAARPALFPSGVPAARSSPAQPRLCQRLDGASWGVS
Procedure: (§1) The ability of compounds of this invention to treat or inhibit disorders related to insulin resistance or hyperglycemia was established with representative compounds of this invention in the following standard pharmacological test procedures, which measured the binding selectivity to the β1, β2, and β3 adrenergic receptors. Binding to the receptors was measured in Chinese Hamster ovary (CHO) cells that were transfected with adrenergic receptors. The following briefly summarizes the procedures used and results obtained.
Cloning of Human β3-AR Genomic DNA: cDNA was constructed by ligating four polymerase chain reaction (PCR) products using the following primers: an ATG-NarI fragment, sense primer 5′-[…]3′ and anti-sense primer 5′[…]3′; a NarI-AccI fragment, 5′[…]3′ as sense and 5′[…]3′ as anti-sense primer; an Accli-Styl fragment, sense primer 5′[…]3′ and anti-sense primer 5′[…]3′ and a Styl-TAG fragment, with sense primer 5′[…]3′ and anti-sense primer 5′[…]3′. The corresponding primer sequences are described in Mantzoros, C. S., et.al., Diabetes 45: 909-914 (1996). The four fragments are ligated into a pUC 18 plasmid (Gibco-BRL) and sequenced. Full length β3 AR clones (402 amino acids) containing the last 6 amino acids of hβ3_AR are prepared with the β3-βARpcDNA3 from ATTC.
(§2) Binding Procedure: Clones expressing receptor levels of 70 to 110 fmoles/mg protein were used in the test procedures. CHO cells were grown in 24-well tissue culture plates in Dulbecco's Modified Eagle Media with 10% fetal bovine serum, MEM non-essential amino acids, Penicillin-Streptompycin and Geneticin. On the day of test procedure, growth medium was replaced with preincubation media (Dulbecco's Modified Eagle Media and incubated for 30 minutes at 37° C. Preincubation medium was replaced with 0.2 ml treatment medium containing DMEM media containing 250 μM IBMX (isobutyl-1-methylxantine) plus 1 mM ascorbic acid with test compound dissolved in DMSO. Test compounds were tested over a concentration range of 10^−9 M to 10^−5 M for β3 cells and 10^−8 to 10^−4 M for β1 and β2 transfected cells. Isoproterenol (10^−5 M) was used as an internal standard for comparison of activity. Cells were incubated at 37° C. on a rocker for 30 min with the β3 cells and 15 min for […]. Incubation was stopped with the addition of 0.2N HCl and neutralized with 2.5N NaOH. The plates, containing the cells and neutralized media, were stored at −20 degrees celsius until ready to test for cAMP using the SPA test kit (Amersham).
(§3) Data Analysis and Results: Data collected from the SPA test procedure were analyzed as per cent of the maximal isoproterenol response at 10^−5 M. Activity curves were plotted using the SAS statistical and graphics software. EC50 values were generated for each compound and the maximal response (IA) developed for each compound is compared to the maximal response of isoproternol at 10^−5 M from the following formula: [formula]

[2] = biological target: T2, human β2-adrenergic receptor (Homo sapiens, UniProt P07550); assay: cAMP accumulation (SPA) in CHO cells transfected with human β2 adrenergic receptor; format: cell-based; settings: for beta-2 IA (maximal response relative to isoproterenol at 10^-5 M): fraction of maximal isoproterenol response
T2 construct: expressed in transfected cells; host or cells: CHO cells
T2 sequence (P07550 whole entry): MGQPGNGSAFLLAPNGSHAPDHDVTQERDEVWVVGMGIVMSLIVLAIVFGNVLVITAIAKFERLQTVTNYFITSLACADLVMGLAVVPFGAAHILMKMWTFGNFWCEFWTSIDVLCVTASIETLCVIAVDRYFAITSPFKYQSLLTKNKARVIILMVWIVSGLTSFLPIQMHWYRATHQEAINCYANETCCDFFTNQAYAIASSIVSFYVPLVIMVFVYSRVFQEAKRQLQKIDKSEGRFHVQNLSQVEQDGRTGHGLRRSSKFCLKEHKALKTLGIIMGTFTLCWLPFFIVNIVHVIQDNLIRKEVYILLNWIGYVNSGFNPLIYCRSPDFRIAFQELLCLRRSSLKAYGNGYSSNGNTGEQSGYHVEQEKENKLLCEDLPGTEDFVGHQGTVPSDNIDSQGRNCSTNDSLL
Procedure: as §1
(§4) Transfection of CHO cells with β1 and β2 adrenergic receptors: CHO cells were transfected with human β1- or β2-adrenergic receptors as described in Tate, K. M., Eur. J. Biochem., 196:357-361 (1991).
as §2, §3

[3] = biological target: T3, human β1-adrenergic receptor (Homo sapiens, UniProt P08588); assay: cAMP accumulation (SPA) in CHO cells transfected with human β1 adrenergic receptor; format: cell-based; settings: for beta-1 IA (maximal response relative to isoproterenol at 10^-5 M): fraction of maximal isoproterenol response
T3 construct: expressed in transfected cells; host or cells: CHO cells
T3 sequence (P08588 whole entry): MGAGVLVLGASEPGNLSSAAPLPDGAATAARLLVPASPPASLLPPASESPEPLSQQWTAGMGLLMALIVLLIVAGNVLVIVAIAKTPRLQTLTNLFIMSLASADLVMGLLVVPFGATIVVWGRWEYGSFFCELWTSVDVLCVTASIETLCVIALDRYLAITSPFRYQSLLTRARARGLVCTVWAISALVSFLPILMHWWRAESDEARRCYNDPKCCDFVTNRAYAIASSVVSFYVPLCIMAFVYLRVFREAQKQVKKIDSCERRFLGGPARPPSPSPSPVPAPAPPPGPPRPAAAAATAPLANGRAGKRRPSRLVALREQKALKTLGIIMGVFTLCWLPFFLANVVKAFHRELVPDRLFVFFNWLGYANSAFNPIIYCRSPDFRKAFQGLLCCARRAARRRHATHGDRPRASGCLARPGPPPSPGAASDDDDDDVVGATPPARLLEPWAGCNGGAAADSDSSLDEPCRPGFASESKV
Procedure: as §1, §4, §2, §3

pEC50 [1] | beta-3 IA (maximal response relative to isoproterenol at 10^-5 M) [1] | beta-2 IA (maximal response relative to isoproterenol at 10^-5 M) [2] | beta-1 IA (maximal response relative to isoproterenol at 10^-5 M) [3] | SMILES | pEC50 ([2]; read-out: beta-2 EC50) | pEC50 ([3]; read-out: beta-1 EC50) | melting point | beta-3 activity at single concentration ([1]; at 10 μM, per cent of maximal isoproterenol response)
 |  |  |  | CCCCOc1ccc(S(=O)(=O)N2CC(NCC(O)COc3cccc4[nH]c5ccccc5c34)C2)cc1 (stereo not shown) [Example 3, 1-[1-(4-Butoxy-benzenesulfonyl)-azetidin-3-ylamino]-3-(9H-carbazol-4-yloxy)-propan-2-ol] |  |  | 81 to 84 °C | 
 |  |  |  | CCCCOc1ccc(S(=O)(=O)N2CC(NCC(O)c3ccc(O)c(NS(C)(=O)=O)c3)C2)cc1 (stereo not shown) [Example 5, N-(5-{2-[1-(4-Butoxy-benzenesulfonyl)-azetidin-3-ylamino]-1-hydroxy-ethyl)-2-hydroxy-phenyl)-methanesulfonamide] |  |  | 67 to 70 °C | 78% at 10 μM
 |  |  |  | CCCCOc1ccc(S(=O)(=O)N2CCC(NCC(O)c3ccc(O)c(NS(C)(=O)=O)c3)C2)cc1 (stereo not shown) [Example 6, N-(5-{2-[1-(4-Butoxy-benzenesulfonyl)-pyrrolidin-3-ylamino]-1-hydroxy-ethyl}-2-hydroxy-phenyl)-methanesulfonamide] |  |  | 95 to 98 °C | 
 |  |  |  | CCCCOc1ccc(S(=O)(=O)N2CCC(NC[C@H](O)COc3cccc4[nH]c5ccccc5c34)C2)cc1 (stereo partly drawn) [Example 7, (2S)-1-[1-(4-Butoxy-benzenesulfonyl)-pyrrolidin-3-ylamino]-3-(9H-carbazol-4-yloxy)-propan-2-ol] |  |  | 118 to 119 °C | 
6.10 | 0.75 |  |  | O=c1[nH]c2cccc(OC[C@@H](O)CNC3CCN(S(=O)(=O)c4cccc5nsnc45)CC3)c2[nH]1 [Example 8, 4-{(2S)-3-[1-(Benzo[1,2,5]thiadiazole-4-sulfonyl)-piperidin-4-ylamino]-2-hydroxy-propoxy}-1,3-dihydro-benzoimidazol-2-one] |  |  |  | 
7.22 | 0.88 | (0.03) | (0.1) | COc1ccc(S(=O)(=O)N2CCC(NC[C@H](O)COc3cccc4[nH]c5ccccc5c34)CC2)cc1 [Example 15, (2S)-1-(9H-Carbazol-4-yloxy)-3-[1-(4-methoxy-benzenesulfonyl)-piperidin-4-ylamino]-propan-2-ol] |  |  |  | 
7.10 | 0.87 | (0.01) | (0.3) | COc1ccc(S(=O)(=O)N2CCC(NC[C@H](O)COc3cccc4[nH]c(=O)[nH]c34)CC2)cc1OC [Example 20, 4-{(2S)-3-[1-(3,4-Dimethoxy-benzenesulfonyl)-piperidin-4-ylamino]-2-hydroxy-propoxy}-1,3-dihydro-benzoimidazol-2-one] |  |  |  | 
7.70 | 1.2 | (0.02) | (0.1) | COc1ccc(S(=O)(=O)N2CCC(NC[C@H](O)COc3cccc4[nH]c5ccccc5c34)CC2)cc1OC [Example 21, (2S)-1-(9H-Carbazol-4-yloxy)-3-[1-(3,4-dimethoxy-benzenesulfonyl)-piperidin-4-ylamino]-propan-2-ol] |  |  |  | 
7.00 | 0.88 |  |  | CS(=O)(=O)Nc1cc(C(O)CNC2CCN(S(=O)(=O)c3ccc4oc5ccccc5c4c3)CC2)ccc1O (stereo not shown) [Example 23, N-(5-(2-[1-(Dibenzofuran-2-sulfonyl)-piperidin-4-ylamino]-1-hydroxy-ethyl}-2-hydroxy-phenyl)-methanesulfonamide] |  |  |  | 

SMILES | pEC50 [1] | beta-3 IA (maximal response relative to isoproterenol at 10^-5 M) [1] | beta-2 IA (maximal response relative to isoproterenol at 10^-5 M) [2] | beta-1 IA (maximal response relative to isoproterenol at 10^-5 M) [3] | pEC50 ([2]; read-out: beta-2 EC50) | pEC50 ([3]; read-out: beta-1 EC50) | melting point | beta-3 activity at single concentration ([1]; at 10 μM, per cent of maximal isoproterenol response)
CCCCOc1ccc(S(=O)(=O)N2CC(NC[C@H](O)COc3ccc(O)cc3)C2)cc1 [Example 1, 4-{(2S)-3-[1-(4-Butoxy-benzenesulfonyl)-azetidin-3-ylamino]-2-hydroxy-propoxy}-phenol] | 7.52 | 0.82 | 0.39 | 0.49 | 6.05 | 5.80 | 55 to 58 °C | 
CCCCOc1ccc(S(=O)(=O)N2CCC(NC[C@H](O)COc3cccc4[nH]c(=O)[nH]c34)CC2)cc1 [Example 9, 4-((2S)-3-[1-(4-Butoxy-benzenesulfonyl)-piperidin-4-ylamino]-2-hydroxy-propoxy}-1,3-dihydro-benzoimidazol-2-one] | 6.30 | 0.8 |  |  |  |  |  | 
CCCCOc1ccc(S(=O)(=O)N2CCC(NC[C@H](O)COc3cccc4[nH]c5ccccc5c34)CC2)cc1 [Example 14, (2S)-1-[1-(4-Butoxy-benzenesulfonyl)-piperidin-4-ylamino]-3-(9H-carbazol-4-yloxy)-propan-2-ol] | 6.07 | 0.74 | (0.07) | (0.04) |  |  |  | 
